“And” between values parts separate entries of the source, which are not always exact repeats. Equal values may be shown once. Read-outs that look alike come from different tables or passages of the source. Numbered stars: 1 amine (or outer) side, 2 acyl side, 3 side chain; on linkers, the order of the positions; unused ones are H or OH. Bridge positions count the residues as written; N and C are the ends. Square brackets hold non-standard residues; d marks the D form. Peptide text beside a SMILES is read from it. * marks the point of attachment. X11 = O=C([C@H](Cc1c[nH]c2cc(C/C=C/c3ccccc3)ccc12)N[*:1])[*:2]; X10 = C=C(C)/C=C/C(C)n1cc(C[C@H](N[*:1])C(=O)[*:2])c2ccccc21; X12 = C=C(C)/C=C/Cc1[nH]c2ccccc2c1C[C@H](N[*:1])C(=O)[*:2]; X8 = C=CC1(n2cc(C[C@H](N[*:1])C(=O)[*:2])c3ccccc32)CCCCC1; X2 = O=C([C@H](Cc1cn(CC=C2CCCCC2)c2ccccc12)N[*:1])[*:2]; X6 = CC/C(C)=C/Cn1cc(C[C@H](N[*:1])C(=O)[*:2])c2ccccc21; X4 = CCC(=CCn1cc(C[C@H](N[*:1])C(=O)[*:2])c2ccccc21)CC; X7 = O=C([C@H](Cc1cn(CC2=CCCCC2)c2ccccc12)N[*:1])[*:2]; X9 = CC(C)=CCn1cc(C[C@H](N[*:1])C(=O)[*:2])c2ccccc21; Glu(3R-Me) = C[C@H](CC(=O)O)[C@H](N)C(=O)O; Kyn = Nc1ccccc1C(=O)C[C@H](N)C(=O)O; Decanoyl = CCCCCCCCCC(=O)*; Orn = NCCC[C@H](N)C(=O)O

The term MIC denotes the least concentration at which growth counts as inhibited.

The test system of one assay is E. faecalis (R712). As to conditions: DapR, BEI HM-335; MIC90, broth microdilution, MHB + 50 mg L^−1 calcium, 35 °C, 22 h, A600, triplicate. On the technique in general: Dilution methods test growth across graded concentrations, often in twofold steps.
For the next assay, the system named is E. faecalis (S613). The note with it: DapS, BEI HM-334, MIC90, broth microdilution, MHB + 50 mg L^−1 calcium, 35 °C, 22 h, A600, triplicate.
In a further assay the test system is S. aureus (hVISA, SR220). The note with it: DapS, VISA, BEI NR-50512; MIC90, broth microdilution, MHB + 50 mg L^−1 calcium, 35 °C, 22 h, A600, triplicate.
Assay [1] relates to E. faecalis (hVRE, ATCC 700802). As to conditions: vancomycin-resistant Enterococcus; Table 1, Fig. S1.
The next assay concerns S. aureus (ATCC 25923). As to conditions: DapS strain; MIC90, broth microdilution, MHB + 50 mg L^−1 calcium, inoculum 1×10^5–5×10^5 CFU/mL, 35 °C, 22 h, A600, triplicate; converted from μM.
The test system of assay [2] is S. aureus (SAUSA300_1715 NE1656). As to conditions: DapR, strain JE2 transposon mutant NE1656, BEI NR-48198; MIC90, broth microdilution, MHB + 50 mg L^−1 calcium, 35 °C, 22 h, A600, triplicate.
The test system of assay [3] is S. aureus (SAUSA300_1713 NE573). The note with it: DapR, strain JE2 transposon mutant NE573, BEI NR-47116; MIC90, broth microdilution, MHB + 50 mg L^−1 calcium, 35 °C, 22 h, A600, triplicate.

For `CCCCCCCCCC(=O)N[C@@H](Cc1c[nH]c2cc(C/C=C/c3ccccc3)ccc12)C(=O)N[C@H](CC(N)=O)C(=O)N[C@@H](CC(=O)O)C(=O)N[C@@H]1C(=O)NCC(=O)N[C@@H](CCCN)C(=O)N[C@@H](CC(=O)O)C(=O)N[C@H](C)C(=O)N[C@@H](CC(=O)O)C(=O)NCC(=O)N[C@H](CO)C(=O)N[C@@H]([C@H](C)CC(=O)O)C(=O)N[C@@H](CC(=O)c2ccccc2N)C(=O)O[C@@H]1C` [compound 54, C6-22-Dap] (Decanoyl-[X11][dN]DTG[Orn]D[dA]DG[dS][Glu(3R-Me)][Kyn]; ester 4-C), the minimal inhibitory concentration (MIC) with E. faecalis (R712) was 8.7 µg/mL.
For the molecule `CCCCCCCCCC(=O)N[C@@H](Cc1cn(C/C=C(\C)CC)c2ccccc12)C(=O)N[C@H](CC(N)=O)C(=O)N[C@@H](CC(=O)O)C(=O)N[C@@H]1C(=O)NCC(=O)N[C@@H](CCCN)C(=O)N[C@@H](CC(=O)O)C(=O)N[C@H](C)C(=O)N[C@@H](CC(=O)O)C(=O)NCC(=O)N[C@H](CO)C(=O)N[C@@H]([C@H](C)CC(=O)O)C(=O)N[C@@H](CC(=O)c2ccccc2N)C(=O)O[C@@H]1C` [compound 42, N1-6-Dap] (Decanoyl-[X6][dN]DTG[Orn]D[dA]DG[dS][Glu(3R-Me)][Kyn]; ester 4-C), the MIC stood at 1.1 µg/mL in the assay on E. faecalis (S613); 0.5 µg/mL in the assay on S. aureus (hVISA, SR220); 17.0 µg/mL with E. faecalis (R712). Further, the “fold enhanced activity (compared with Dap)” value in assay [1] is listed as 5–15 fold.
Take `C=C(C)/C=C/Cc1[nH]c2ccccc2c1C[C@H](NC(=O)CCCCCCCCC)C(=O)N[C@H](CC(N)=O)C(=O)N[C@@H](CC(=O)O)C(=O)N[C@@H]1C(=O)NCC(=O)N[C@@H](CCCN)C(=O)N[C@@H](CC(=O)O)C(=O)N[C@H](C)C(=O)N[C@@H](CC(=O)O)C(=O)NCC(=O)N[C@H](CO)C(=O)N[C@@H]([C@H](C)CC(=O)O)C(=O)N[C@@H](CC(=O)c2ccccc2N)C(=O)O[C@@H]1C` [compound 46, C2R-16-Dap] (Decanoyl-[X12][dN]DTG[Orn]D[dA]DG[dS][Glu(3R-Me)][Kyn]; ester 4-C): the minimum inhibitory concentration (MIC) in the assay with S. aureus (hVISA, SR220) amounted to 17.0 µg/mL.
For the molecule `C=C(C)/C=C/C(C)n1cc(C[C@H](NC(=O)CCCCCCCCC)C(=O)N[C@H](CC(N)=O)C(=O)N[C@@H](CC(=O)O)C(=O)N[C@@H]2C(=O)NCC(=O)N[C@@H](CCCN)C(=O)N[C@@H](CC(=O)O)C(=O)N[C@H](C)C(=O)N[C@@H](CC(=O)O)C(=O)NCC(=O)N[C@H](CO)C(=O)N[C@@H]([C@H](C)CC(=O)O)C(=O)N[C@@H](CC(=O)c3ccccc3N)C(=O)O[C@@H]2C)c2ccccc21` (stereo partly drawn) [compound 48, N1R-18-Dap] (Decanoyl-[X10][dN]DTG[Orn]D[dA]DG[dS][Glu(3R-Me)][Kyn]; ester 4-C), the minimum inhibitory concentration (MIC) in the assay on S. aureus (ATCC 25923) and in the assay on E. faecalis (R712) was 17.1 µg/mL throughout.
For `CCCCCCCCCC(=O)N[C@@H](Cc1cn(CC=C(CC)CC)c2ccccc12)C(=O)N[C@H](CC(N)=O)C(=O)N[C@@H](CC(=O)O)C(=O)N[C@@H]1C(=O)NCC(=O)N[C@@H](CCCN)C(=O)N[C@@H](CC(=O)O)C(=O)N[C@H](C)C(=O)N[C@@H](CC(=O)O)C(=O)NCC(=O)N[C@H](CO)C(=O)N[C@@H]([C@H](C)CC(=O)O)C(=O)N[C@@H](CC(=O)c2ccccc2N)C(=O)O[C@@H]1C` [compound 44, N1-7-Dap] (Decanoyl-[X4][dN]DTG[Orn]D[dA]DG[dS][Glu(3R-Me)][Kyn]; ester 4-C), the MIC in the assay with E. faecalis (S613) is 0.3 to 0.6 µg/mL and 0.5 µg/mL; in assay [2] it was 0.5 µg/mL; in the assay on S. aureus (hVISA, SR220), 0.5 µg/mL; in the assay with E. faecalis (R712), 4.3 µg/mL.
In the case of `CCCCCCCCCC(=O)N[C@@H](Cc1cn(CC=C2CCCCC2)c2ccccc12)C(=O)N[C@H](CC(N)=O)C(=O)N[C@@H](CC(=O)O)C(=O)N[C@@H]1C(=O)NCC(=O)N[C@@H](CCCN)C(=O)N[C@@H](CC(=O)O)C(=O)N[C@H](C)C(=O)N[C@@H](CC(=O)O)C(=O)NCC(=O)N[C@H](CO)C(=O)N[C@@H]([C@H](C)CC(=O)O)C(=O)N[C@@H](CC(=O)c2ccccc2N)C(=O)O[C@@H]1C` [compound 51, N1-19-Dap] (Decanoyl-[X2][dN]DTG[Orn]D[dA]DG[dS][Glu(3R-Me)][Kyn]; ester 4-C), the MIC stood at 1.3 µg/mL in the assay with E. faecalis (S613); 2.6 µg/mL in assay [2]; 1.1 µg/mL with S. aureus (hVISA, SR220); 1.3 µg/mL in assay [3]; 5.2 µg/mL in the assay on E. faecalis (R712). Also, the “fold enhanced activity (compared with Dap)” value in assay [1] was 5–15 fold.
Regarding `C=CC1(n2cc(C[C@H](NC(=O)CCCCCCCCC)C(=O)N[C@H](CC(N)=O)C(=O)N[C@@H](CC(=O)O)C(=O)N[C@@H]3C(=O)NCC(=O)N[C@@H](CCCN)C(=O)N[C@@H](CC(=O)O)C(=O)N[C@H](C)C(=O)N[C@@H](CC(=O)O)C(=O)NCC(=O)N[C@H](CO)C(=O)N[C@@H]([C@H](C)CC(=O)O)C(=O)N[C@@H](CC(=O)c4ccccc4N)C(=O)O[C@@H]3C)c3ccccc32)CCCCC1` [compound 50, N1R-19-Dap] (Decanoyl-[X8][dN]DTG[Orn]D[dA]DG[dS][Glu(3R-Me)][Kyn]; ester 4-C), the MIC with E. faecalis (R712) worked out at 17.3 µg/mL.
Take `CCCCCCCCCC(=O)N[C@@H](Cc1cn(CC=C(C)C)c2ccccc12)C(=O)N[C@H](CC(N)=O)C(=O)N[C@@H](CC(=O)O)C(=O)N[C@@H]1C(=O)NCC(=O)N[C@@H](CCCN)C(=O)N[C@@H](CC(=O)O)C(=O)N[C@H](C)C(=O)N[C@@H](CC(=O)O)C(=O)NCC(=O)N[C@H](CO)C(=O)N[C@@H]([C@H](C)CC(=O)O)C(=O)N[C@@H](CC(=O)c2ccccc2N)C(=O)O[C@@H]1C` [compound 40, N1-Trp-prenyl-Dap] (Decanoyl-[X9][dN]DTG[Orn]D[dA]DG[dS][Glu(3R-Me)][Kyn]; ester 4-C): the MIC in the assay on S. aureus (hVISA, SR220) was found to be 0.5 µg/mL; in the assay on E. faecalis (R712), 33.7 µg/mL.
Consider `CCCCCCCCCC(=O)N[C@@H](Cc1c[nH]c2ccccc12)C(=O)N[C@H](CC(N)=O)C(=O)N[C@@H](CC(=O)O)C(=O)N[C@@H]1C(=O)NCC(=O)N[C@@H](CCCN)C(=O)N[C@@H](CC(=O)O)C(=O)N[C@H](C)C(=O)N[C@@H](CC(=O)O)C(=O)NCC(=O)N[C@H](CO)C(=O)N[C@@H]([C@H](C)CC(=O)O)C(=O)N[C@@H](CC(=O)c2ccccc2N)C(=O)O[C@@H]1C` [DAP, Daptomycin], for which the MIC in the assay with E. faecalis (S613) is 16.2 µg/mL; with E. faecalis (S613) (listed as Dap), ~ 16 μg mL^−1; in assay [2] it was 16.2 µg/mL; in the assay with S. aureus (hVISA, SR220), 4.0 µg/mL; in assay [3], 16.2 µg/mL; with E. faecalis (R712) it was above 32.4 µg/mL.
Consider `CCCCCCCCCC(=O)N[C@@H](Cc1cn(CC2=CCCCC2)c2ccccc12)C(=O)N[C@H](CC(N)=O)C(=O)N[C@@H](CC(=O)O)C(=O)N[C@@H]1C(=O)NCC(=O)N[C@@H](CCCN)C(=O)N[C@@H](CC(=O)O)C(=O)N[C@H](C)C(=O)N[C@@H](CC(=O)O)C(=O)NCC(=O)N[C@H](CO)C(=O)N[C@@H]([C@H](C)CC(=O)O)C(=O)N[C@@H](CC(=O)c2ccccc2N)C(=O)O[C@@H]1C` [compound 53, N1-20-Dap] (Decanoyl-[X7][dN]DTG[Orn]D[dA]DG[dS][Glu(3R-Me)][Kyn]; ester 4-C), for which the minimal inhibitory concentration (MIC) in the assay on E. faecalis (S613) is 17.1 µg/mL; in assay [2], 17.1 µg/mL; in assay [3], 17.1 µg/mL; with E. faecalis (R712), above 17.1 µg/mL.

The values are drawn from publication PMC7447621, “Chemoenzymatic synthesis of daptomycin analogs active against daptomycin-resistant strains” (Applied Microbiology and Biotechnology, 2020).
